Data as given in patent publication US20110028401A1, “CRIPTO BLOCKING MOLECULES AND THERAPEUTIC USES THEREOF” (CONSIGLIO NAZIONALE DELLE RICERCHE, priority 2009, published 2011).

Columns and labels:
[1] = test system: wild-type EBs; experiment: Cardiomyogenesis (beating areas) in wild-type embryoid bodies; format: cell-based, mouse
Protocol: Undifferentiated ESCs were cultured as previously described^55.
Given the neutralizing activity of the peptide, the authors then asked whether Cripto BP was able to block ALK-4/Smad2-dependent Cripto signalling in ESCs and thereby mimic the absence of cripto in an ESC differentiation assay. The authors first evaluated whether Cripto BP was able to prevent Cripto-induced Smad2 phosphorylation of serum starved 2 day-old cripto^−/− Embryoid Bodies (EBs), as assessed by Western blot analysis. Recombinant soluble Cripto protein stimulated Smad2 phosphorylation^35. This effect was not modified by the presence of increasing amounts of either Cripto DP or CP (2.5 μM and 25 μM) (FIG. 6a). […] The authors thus asked whether the neutralizing activity of Cripto BP on endogenous Cripto signalling was also able to block cardiomyogenesis in wild-type ESCs. To this end, 2 day-old wild-type EBs were treated with increasing amounts of either CP or Cripto BP, ranging from 5.0 to 25 μM, and the percentage of EBs containing beating areas was scored from days 8 to 12 of the differentiation (n=˜60 EBs/group; FIG. 6b). Given that the peptides were dissolved in DMSO, control untreated EBs were compared with DMSO treated EBs.

[2] = biological target: T1, Cripto protein (Mus musculus, UniProt P51865); experiment: ELISA binding of recombinant Cripto to plate-coated peptide; details: peptide coated at 50 μM; Cripto 50 to 200 ng/ml
T1 construct: made in house
Protocol: (§1) To evaluate the binding of Cripto BP to either Cripto or ALK-4 receptor, BP or control peptides (CP; 50 μM) were coated on the surface of a 96-well microtiter plate and incubated over night at 4° C. Wells were washed five times with PBS Tween (PBT) and the aspecific sites blocked for 3 h at RT with 1% Bovine Serum Albumin (BSA) in PBS, 180 μL/well. Wells were washed as above, and the recombinant form of either ALK-4-humanFc chimeric receptor or Cripto protein in PBT were added at the indicated concentrations and incubated for 1 h at 37° C. followed by 1 hr at RT. After washing with PBT, to evaluate the binding of Cripto to 26-23-23, rabbit anti-Cripto IgG (6 μg/ml) were added to the plates and incubated 1 h at 37° C. and 1 hr at RT. After washing in PBT, a goat anti-rabbit […] (Santa Crutz) was added to the plate (0.3 μg/ml) and incubated 1 h at RT. Finally, the plate was developed as reported above. To evaluate the binding of ALK4 to 26-23-23, the extracellular domain of ALK-4 receptor fused to human Fc (R&D Systems) was added at the indicated concentrations and a goat anti-human Fc (Jackson ImmunoResearch; 1:1000) was used.

[3] = test system: Cripto-induced Smad2 phosphorylation; experiment: Smad2 phosphorylation assay (Western blot) in cripto-/- embryoid bodies; format: cell-based, mouse
Protocol: Two day-old cripto^−/− Embryoid Bodies (EBs) were serum starved for 3 hrs in DMEM (GIBCO) without LIF and in low serum (0.5% FBS). Following starvation, EBs were incubated for 20 min at 37° C. with recombinant Cripto protein (0.5 µg/ml) either alone or in the presence of the indicated amount of peptides. Finally, EBs were dissolved in Laemmli lysis buffer and analyzed by Western blot using the Trans-Blot Semi-dry System (BIO-RAD), following manufacturer's instruction. Anti-Smad2 and anti-phospho-Smad2 (Ser465/467) Antibodies (Cell Signalling Technology) were used, following the manufacturer's instructions.

[4] = biological target: T2, ALK-4 receptor (Homo sapiens, UniProt P36896); experiment: ELISA binding of ALK-4 receptor to plate-coated peptide; details: peptide coated at 50 μM; ALK-4 50 to 200 ng/ml
T2 construct: the extracellular domain of ALK-4 receptor fused to human Fc (R&D Systems); purchased R&D Systems
T2 sequence (P36896 24-126 limits assumed): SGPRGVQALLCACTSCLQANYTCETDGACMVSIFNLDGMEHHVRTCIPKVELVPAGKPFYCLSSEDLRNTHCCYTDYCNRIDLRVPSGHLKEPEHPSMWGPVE
Protocol: as §1

[5] = test system: wild-type EBs; experiment: QRT-PCR of cardiac and neuronal markers in EBs; format: cell-based, mouse; details: 25 μM peptide, 13 day-old EBs
Protocol: Total RNAs from 13 day-old EBs was extracted with TRIzol kit (Life Technologies Inc.) according to manufacturer's instructions. One microgram of total RNA was used for cDNA synthesis with SuperScript II reverse transcriptase (Life Technologies Inc.) and random hexamers. Quantitative Real time PCR was performed using SYBR Green PCR master mix (EuroClone), according to manufacturer's instructions. The primers used are described in Table S2.

T1 sequence (P51865 18-156 limits assumed): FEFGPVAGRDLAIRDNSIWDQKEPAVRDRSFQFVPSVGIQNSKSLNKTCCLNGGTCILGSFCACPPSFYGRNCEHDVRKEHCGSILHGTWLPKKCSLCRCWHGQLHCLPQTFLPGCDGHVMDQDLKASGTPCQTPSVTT

Q: What does the source list for `C[S+]([O-])CCC(N)C(=O)N[C@@H](CSCc1ccccc1)C(=O)N[C@@H](CSCc1ccccc1)C(=O)N[C@@H](CCCCNC(=O)[C@H](CSCc1ccccc1)NC(=O)[C@H](CSCc1ccccc1)NC(=O)[C@@H](N)CC[S+](C)[O-])C(=O)N[C@@H](CCCCNC(=O)[C@H](CCCCNC(=O)[C@H](CSCc1ccccc1)NC(=O)[C@H](CSCc1ccccc1)NC(=O)[C@@H](N)CC[S+](C)[O-])NC(=O)[C@H](CSCc1ccccc1)NC(=O)[C@H](CSCc1ccccc1)NC(=O)[C@@H](N)CC[S+](C)[O-])C(=O)NCC(=O)O` (stereo partly drawn) [Cripto BP]?
A: rhythmically contracting (beating) EBs ([1]; 25 μM peptide, wild-type EBs, mean±SD): 3.7%±3.5; effect on the percentage of beating EBs (cardiomyogenesis) ([1]; 5.0 to 25 μM, scored days 8 to 12): dose-dependent inhibition of cardiomyogenesis; binding of recombinant Cripto to immobilized peptide [2]: specifically recognized the immobilized Cripto BP, in a dose-dependent manner; effect on Cripto-induced Smad2 phosphorylation ([3]; 2 day-old cripto−/− EBs, Cripto 0.5 μg/ml, peptide 2.5 μM and 25 μM): inhibited; effect on Cripto-induced Smad2 phosphorylation ([3]; peptide 25 μM (125× molar excess)): completely blocked; binding of ALK-4 receptor to immobilized peptide [4]: not ALK-4 specifically recognized; expression of cardiac specific marker MLc2v [5]: reduced; expression of midbrain dopaminergic neuron markers (Pitx3, Wnt5a, Shh, TH, DAT) [5]: showed expression of markers characteristic of developing midbrain dopaminergic neurons; expression of pan neuronal marker NFM [5]: induced
